Columns and labels:
[1] = Click-and-cleave without proteins/lysate (release of cleaved off photo-reacted reactivity function 15, LC-MS); format: physicochemical; settings: for Area/a.u. of LC-MS EIC 249.10 peak at 1.75 min (cleaved off photo-reacted reactivity function 15): starting material bound to CPG-TCO beads 13
Method: A solution of 100 μL 2.5 μM 11 (CPT727, Capture Compound bearing tetrazine as sorting function and a chemically cleavable photo-reactivity function) in phosphate buffered saline (PBS) was irradiated with UV light (λmax=310 nm) for 5 min at 4° C. in the caproBox (caprotec bioanalytics, Berlin. Germany) to activate the reactivity function yielding 12 (Scheme 12).
The resulting solution was incubated with 2 mg 13 (CPT601, CCB 4, trans-cyclooctene (TCO) modified controlled pore glass (CPG), CPG-TCO beads) over night at 4° C. to covalently bind compound 12 to 13 by the TCO-tetrazine click reaction yielding 14 (Scheme 12). During this time, 13 was kept in suspension by rotation.
Unbound 12 was removed by separating the supernating solution from 14 after centrifugation in a table top centrifuge and washing the solid 14 by re-suspending in fresh solution and removal of the supernatant after centrifugation (three times with 200 μl SL Buffer (50 mM Tris/HCl, 320 mM beta-mercaptoethanol, 2.5% sodium dodecylsulfate, 0.05% bromophenol blue, 10% glycerol, pH 6.8), three times with 200 μl 50% acetonitrile).
The washed 14 was divided into two aliquots. One aliquot was incubated with 10 mM 2-nitrobenzhydrazide and 10 mM HCl in 10 μl 50% acetonitrile (final concentrations and volume) at room temperature for 1 h while keeping 14 in suspension by rotation yielding the cleaved off photo-reacted reactivity function 15 (Scheme 12). As a control, the second aliquot of 14 was treated the same way side-by-side but without 2-nitrobenzhydrazide and HCl. The solutions supernating (cleaved) 14 were analyzed by LC-MS.
The same procedure was performed side-by-side using 16 (CPT634, Capture Compound bearing tetrazine as sorting function and non-cleavable photo-reactivity function) instead of 11.

[2] = biological target: T1, 5-methylthioadenosine/S-adenosylhomocysteine nucleosidase (Escherichia coli, UniProt P0AF12); experiment: Click-and-cleave with proteins/lysate, nanoLC/MS2 protein quantification of gel slices; format: binding, E. coli K-12 strain; settings: compound 2.5 μM, gel slice around 25 kDa
T1 construct: prepared from the DH5a derivative of the E. coli K-12 strain; endogenous in cells; host or cells: E. coli K-12 DH5a lysate
T1 sequence (P0AF12 whole entry): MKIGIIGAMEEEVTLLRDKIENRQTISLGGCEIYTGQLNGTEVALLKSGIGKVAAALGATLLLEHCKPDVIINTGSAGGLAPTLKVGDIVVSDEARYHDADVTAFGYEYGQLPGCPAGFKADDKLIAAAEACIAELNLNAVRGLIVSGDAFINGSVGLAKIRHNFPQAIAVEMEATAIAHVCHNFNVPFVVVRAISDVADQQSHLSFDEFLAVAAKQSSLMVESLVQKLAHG
Method: (§1) Compound 11 (final concentration 2.5 μM) was incubated for 5 min at 4° C. with a lysate (final total protein concentration 5 mg/ml) prepared from the DH5a derivative of the E. coli K-12 strain in phosphate buffered saline (final volume 100 μl). In a so called competition control (designated “C” as opposed to “A” for CCMS assay without the competitor SAH) carried out side-by-side, S-adenosyl-L-homocysteine (SAH) (final concentration 250 μM) was added to the lysate before compound 11 to compete for the binding of the SAH selectivity function of 11 to SAH binding proteins such as S-adenosyl-L-methionine (SAM) dependent methyltransferases.
(§2) The samples were irradiated with UV light (λmax=310 nm) for 5 min in the caproBox (caprotec bioanalytics, Berlin, Germany) at about 4° C. to activate the reactivity function of 11 and form the covalent cross-link to proteins leading to 11-protein conjugates. Due to the SAH selectivity function in 11. SAH binding proteins will be selectively cross-linked to 11 and this selective crosslink will be diminished or inhibited in the competition control “C”.
(§3) The samples “A” and “C” were incubated with 250 μg 13 (CPT601, CCB 4, trans-cyclooctene (TCO) modified controlled pore glass (CPG). CPG-TCO beads), respectively, over night at 4° C. with rotation to keep the CPG beads (13) in suspension. During this time the 11-protein conjugates covalently bound to 13 by the TCO-tetrazine click reaction to form 13-11-protein conjugates. Selective binding of 11-protein conjugates to 13 was shown by taking 5 μl samples of “A” and “C”, respectively, before and after incubation with 13 and incubating these samples with 18 (final concentration 10 μM, CPT533. Probe 3, TCO-TAMRA) for 15 min at room temperature. Formed by the TCO-tetrazine click reaction, the fluorescent 18-11-protein conjugates were detected as in-gel fluorescent bands after SDS-PAGE. In the samples taken after incubation with 13, less in-gel fluorescent bands (18-11-protein conjugates) were detected than in the samples taken before incubation with 13, showing that 11-protein conjugates had reacted with 13 to form 13-11-protein conjugates.
(§4) The supernating solution was separated from the 13-11-protein conjugates after centrifugation in a table top centrifuge and the CPG beads containing the 13-11-protein conjugates were washed by re-suspending in fresh solution and removal of the supernatant after centrifugation (three times with 200 μl 4×SL Buffer, three times with 200 μl 50% acetonitrile).
(§5) The washed CPG beads containing the 13-11-protein conjugates were divided into two aliquots, respectively, for “A” and “C”. One aliquot was incubated with 10 mM 2-nitrobenzhydrazide and 10 mM HCl in 10 μl 50% acetonitrile (final concentrations and volume) at room temperature for 1 h while keeping the CPG beads containing the 13-11-protein conjugates in suspension by rotation yielding proteins with attached cleaved off photo-reacted reactivity function. As a control, the second aliquot of the CPG beads containing the 13-11-protein conjugates was treated the same way side-by-side but without 2-nitrobenzhydrazide and HCl. The proteins in the solutions supernating (cleaved) the CPG beads were analyzed by SDS-PAGE (4-20% Tris-Glycine gradient gels, 15 well, 1.0 mm; Novex® life Technologes® Ref. EC60255BOX, 25 min run time at 300 V) followed by silver staining (ProteoSilver Silver Stain Kit, Sigma).
(§6) Gel slices were cut out around 25 kDa in each gel lane corresponding to the molecular weight (height) of the specific gel lane marked by the red arrow in FIG. 13. The gel slices were treated with trypsin and the resulting peptides were analyzed by nanoLC/MS^2 (LTQ Orbitrap) followed by automatic software based protein identification and quantification (MaxQuant software package). […]

[3] = biological target: T2, Ribosomal RNA small subunit methyltransferase G (Escherichia coli, UniProt P0A6U5); experiment: as above; format: binding, E. coli K-12 strain; settings: Cleavage, compound 2.5 μM, gel slice around 25 kDa
T2 construct: prepared from the DH5a derivative of the E. coli K-12 strain; endogenous in cells; host or cells: E. coli K-12 DH5a lysate
T2 sequence (P0A6U5 whole entry): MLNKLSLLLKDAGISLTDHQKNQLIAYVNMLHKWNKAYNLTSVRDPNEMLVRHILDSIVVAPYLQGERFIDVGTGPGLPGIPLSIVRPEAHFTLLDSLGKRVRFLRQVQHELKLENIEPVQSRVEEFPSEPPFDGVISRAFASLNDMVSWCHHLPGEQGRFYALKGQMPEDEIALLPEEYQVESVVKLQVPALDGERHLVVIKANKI
Method: as §1, §2, §3, §4, §5, §6

[4] = biological target: T3, tRNA (cmo5U34)-methyltransferase (Escherichia coli, UniProt P76290); experiment: as above; format: binding, E. coli K-12 strain; settings: Cleavage, compound 2.5 μM, gel slice around 25 kDa
T3 construct: prepared from the DH5a derivative of the E. coli K-12 strain; endogenous in cells; host or cells: E. coli K-12 DH5a lysate
T3 sequence (P76290 whole entry): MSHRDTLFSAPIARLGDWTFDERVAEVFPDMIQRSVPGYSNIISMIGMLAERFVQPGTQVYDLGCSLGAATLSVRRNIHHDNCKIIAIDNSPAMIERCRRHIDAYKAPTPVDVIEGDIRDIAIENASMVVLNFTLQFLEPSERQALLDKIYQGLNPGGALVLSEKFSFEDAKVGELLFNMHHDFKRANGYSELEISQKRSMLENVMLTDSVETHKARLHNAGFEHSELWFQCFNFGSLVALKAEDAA
Method: as §1, §2, §3, §4, §5, §6

[5] = biological target: T4, tRNA (guanine-N(7)-)-methyltransferase (Escherichia coli, UniProt P0A8I5); experiment: as above; format: binding, E. coli K-12 strain; settings: A (without competitor SAH), Cleavage; compound 2.5 μM, gel slice around 25 kDa
T4 construct: prepared from the DH5a derivative of the E. coli K-12 strain; endogenous in cells; host or cells: E. coli K-12 DH5a lysate
T4 sequence (P0A8I5 whole entry): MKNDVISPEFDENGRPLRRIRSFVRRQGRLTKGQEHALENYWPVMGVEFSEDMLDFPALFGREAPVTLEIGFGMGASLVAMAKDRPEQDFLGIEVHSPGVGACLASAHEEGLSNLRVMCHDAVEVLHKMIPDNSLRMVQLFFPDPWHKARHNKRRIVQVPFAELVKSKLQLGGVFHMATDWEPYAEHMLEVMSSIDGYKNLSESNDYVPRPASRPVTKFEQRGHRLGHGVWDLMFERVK
Method: as §1, §2, §3, §4, §5, §6

[6] = biological target: T5, SAH binding protein (Escherichia coli, UniProt P0AF12); experiment: Click-and-cleave with proteins/lysate, SDS-PAGE/silver stain; set-up: species or system E. coli K-12 strain; settings: cleavage conditions (10 mM 2-nitrobenzhydrazide and 10 mM HCl in 50% acetonitrile)
T5 construct: prepared from the DH5a derivative of the E. coli K-12 strain; endogenous in cells; host or cells: E. coli K-12 DH5a lysate
T5 sequence (P0AF12 whole entry): as the sequence (P0AF12 whole entry) above
Method: Compound 11 (final concentration 2.5 μM) was incubated for 5 min at 4° C. with a lysate (final total protein concentration 5 mg/ml) prepared from the DH5a derivative of the E. coli K-12 strain in phosphate buffered saline (final volume 100 μl). In a so called competition control (designated “C” as opposed to “A” for CCMS assay without the competitor SAH) carried out side-by-side, S-adenosyl-L-homocysteine (SAH) (final concentration 250 μM) was added to the lysate before compound 11 to compete for the binding of the SAH selectivity function of 11 to SAH binding proteins such as S-adenosyl-L-methionine (SAM) dependent methyltransferases. […]
The samples “A” and “C” were incubated with 250 μg 13 (CPT601, CCB 4, trans-cyclooctene (TCO) modified controlled pore glass (CPG). CPG-TCO beads), respectively, over night at 4° C. with rotation to keep the CPG beads (13) in suspension. […] Formed by the TCO-tetrazine click reaction, the fluorescent 18-11-protein conjugates were detected as in-gel fluorescent bands after SDS-PAGE. In the samples taken after incubation with 13, less in-gel fluorescent bands (18-11-protein conjugates) were detected than in the samples taken before incubation with 13, showing that 11-protein conjugates had reacted with 13 to form 13-11-protein conjugates. […]

[7] = A (without competitor SAH), Cleavage (10 mM 2-nitrobenzhydrazide, 10 mM HCl)
[8] = A (without competitor SAH), no Cleavage
[9] = C (competition control, SAH 250 μM), Cleavage
[10] = C (competition control, SAH 250 μM), no Cleavage
[11] = C (competition control, SAH 250 μM)

Structure (SMILES): Cc1nnc(-c2ccc(CN(CC(=O)NCCCCNc3ncnc4c3ncn4C3OC(CSCC[C@H](N)C(=O)O)C(O)C3O)C(=O)CC/C=N/N(C)C(=O)c3ccc(C4(C(F)(F)F)N=N4)cc3)cc2)nn1 (stereo partly drawn) [Compound 11, (2S)-2-amino-4-((3,4-dihydroxy-5-(6-(4-(2-((E)-N-(4-(6-methyl-1,2,4,5-tetrazin-3-yl)benzyl)-4-(2-methyl-2-(4-(3-(trifluoromethyl)-3H-diazirin-3-yl)benzoyl)hydrazono)butanamido)acetamido)butylamino)-9H-purin-9-yl)tetrahydrofuran-2-yl)methylthio)butanoic acid]
- fold higher intensity of 15 with 2-nitrobenzhydrazide and HCl than without ([1]; 10 mM 2-nitrobenzhydrazide, 10 mM HCl vs 50% acetonitrile only): more than 50 fold
- Area/a.u. of LC-MS EIC 249.10 peak at 1.75 min (cleaved off photo-reacted reactivity function 15) ([1]; cleavage condition 10 mM 2-nitrobenzhydrazide, 10 mM HCl in 50% acetonitrile): 26722302 a.u.
- Area/a.u. of LC-MS EIC 249.10 peak at 1.75 min (cleaved off photo-reacted reactivity function 15) ([1]; cleavage condition 50% acetonitrile): 491625 a.u.
- Normalized protein intensities [2, 7]: 9.0E+07
- Normalized protein intensities [2, 8]: 4.0E+06
- Normalized protein intensities [2, 9]: 2.2E+06
- Normalized protein intensities [2, 10]: 1.0E+06
- Normalized protein intensities ([3]; A (without competitor SAH)): 7.8E+05
- Normalized protein intensities [3, 11]: 3.6E+05
- Normalized protein intensities ([4]; A (without competitor SAH)): 1.6E+06
- Normalized protein intensities [4, 11]: 2.9E+05
- Normalized protein intensities [5]: 4.0E+05
- gel band corresponding to a SAH binding protein after SDS-PAGE/silver stain [6]: present

Structure (SMILES): Cc1nnc(-c2ccc(CN(CC(=O)NCCCCNc3ncnc4c3ncn4C3OC(CSCC[C@H](N)C(=O)O)C(O)C3O)C(=O)c3ccc(C4(C(F)(F)F)N=N4)cc3)cc2)nn1 (some centres unmarked) [Compound 16]
- Normalized protein intensities [2, 7]: 7.2E+06
- Normalized protein intensities [2, 8]: 1.9E+05
- Normalized protein intensities [2, 9]: 7.9E+05
- Normalized protein intensities [2, 10]: 2.6E+05
- Normalized protein intensities ([3]; A (without competitor SAH)): 1.5E+05
- Normalized protein intensities [3, 11]: 7.5E+04
- gel band corresponding to a SAH binding protein after SDS-PAGE/silver stain [6]: absent

From US20160349268A1, “STEPWISE ASSEMBLED CAPTURE COMPOUNDS COMPRISING A CLEAVABLE FUNCTION AND METHOD FOR ISOLATING AND/OR CHARACTERIZING BIOMOLECULES OR BIOMOLECULE FRAGMENTS, IN PARTICULAR PROTEINS OR PROTEIN FRAGMENTS, OF COMPLEX MIXTURES” (CAPROTEC BIOANALYTICS GMBH, priority 2014, published 2016)
